ChEMBL document CHEMBL1201862, “PubChem BioAssay data set” (2004)
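Five compound concentrations were applied to cells in 96-well plates for 48 hours; endpoints were derived by simple linear interpolation of the resulting dose-response curve. GI50 marks 50% less growth.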 The source made the active and inactive calls. Cut-off read from the data, not from the text of the source: active = GI50 up to about 1.1 µM and inactive = higher.

Legend:
Test in all cases: NCI tumour cell line growth inhibition, 48 h
[1] = test system: 786-0
[2] = test system: A549
[3] = test system: ACHN
[4] = test system: CAKI-1
[5] = test system: CCRF-CEM
[6] = test system: COLO 205
[7] = test system: DLD-1
[8] = test system: DMS-114
[9] = test system: EKVX
[10] = test system: HCC 2998
[11] = test system: HCT-116
[12] = test system: HCT-15
[13] = test system: HL-60
[14] = test system: HOP-18
[15] = test system: HOP-62
[16] = test system: HOP-92
[17] = test system: HT-29
[18] = test system: IGROV-1
[19] = test system: K562
[20] = test system: KM-20L2
[21] = test system: KM12
[22] = test system: LOX IMVI
[23] = test system: LXFL 529
[24] = test system: M14
[25] = test system: M19-MEL
[26] = test system: MOLT-4
[27] = test system: Malme-3M
[28] = test system: NCI-H226
[29] = test system: NCI-H23
[30] = test system: NCI-H460
[31] = test system: NCI-H522
[32] = test system: OVCAR-3
[33] = test system: OVCAR-4
[34] = test system: OVCAR-5
[35] = test system: OVCAR-8
[36] = test system: RPMI-8226
[37] = test system: RXF 393
[38] = test system: RXF 631
[39] = test system: SF-268
[40] = test system: SF-295
[41] = test system: SF-539
[42] = test system: SK-MEL-28
[43] = test system: SK-MEL-2
[44] = test system: SK-MEL-5
[45] = test system: SN12C
[46] = test system: SNB-19
[47] = test system: SNB-75
[48] = test system: SNB-78
[49] = test system: SR
[50] = test system: SW-620
[51] = test system: TK-10
[52] = test system: U-251
[53] = test system: UACC-257
[54] = test system: UO-31
[55] = test system: A498
[56] = test system: DMS-273
[57] = test system: SK-OV-3
[58] = test system: UACC-62
[59] = test system: XF498

Measured: GI50

CCOc1cc2c[n+](C)c3c4cc(OC)c(OC)cc4ccc3c2cc1OC
inactive: [1] 17.7 µM | [2] > 100 µM | [3] > 100 µM | [4] > 100 µM | [5] 20.8 µM | [6] > 100 µM | [7] > 100 µM | [8] > 100 µM | [9] > 100 µM | [10] > 100 µM | [11] > 100 µM | [13] 97.5 µM | [14] 60.8 µM | [15] > 100 µM | [16] > 100 µM | [17] 13.6 µM | [18] > 100 µM | [19] > 100 µM | [20] > 100 µM | [21] > 100 µM | [22] > 100 µM | [23] > 100 µM | [24] > 100 µM | [25] > 100 µM | [26] > 100 µM | [27] > 100 µM | [28] > 100 µM | [29] > 100 µM | [30] > 100 µM | [31] > 100 µM | [32] > 100 µM | [33] > 100 µM | [34] > 100 µM | [35] 17.7 µM | [36] > 100 µM | [37] > 100 µM | [38] 4.07 µM | [39] > 100 µM | [40] > 100 µM | [41] > 100 µM | [42] > 100 µM | [43] > 100 µM | [44] > 100 µM | [45] > 100 µM | [46] > 100 µM | [47] > 100 µM | [48] > 100 µM | [49] 20.4 µM | [50] > 100 µM | [51] > 100 µM | [52] > 100 µM | [53] > 100 µM | [54] > 100 µM
> 100 µM: [12]

O=C1/C(=C/c2ccc(Cl)cc2)CNC/C1=C\c1ccc(Cl)cc1
active: [23] 1.09 µM | [36] 0.267 µM | [50] 0.792 µM
1.62 µM: [12]
inactive: [1] 2.07 µM | [55] 2.32 µM | [2] 3.4 µM | [3] 2.07 µM | [4] 2.44 µM | [6] 2.03 µM | [7] 2.38 µM | [56] 1.98 µM | [10] 2.23 µM | [11] 1.65 µM | [14] 4.89 µM | [15] 3.42 µM | [18] 2.17 µM | [20] 2.64 µM | [21] 1.44 µM | [24] 1.89 µM | [25] 2.1 µM | [26] 2.28 µM | [27] 3.81 µM | [29] 1.95 µM | [30] 2.11 µM | [31] 2.02 µM | [32] 1.86 µM | [35] 3.6 µM | [38] 2.79 µM | [41] 1.77 µM | [42] 1.82 µM | [44] 6.73 µM | [57] 10.8 µM | [45] 2.67 µM | [46] 1.7 µM | [47] 2.9 µM | [48] 2.65 µM | [51] 4.06 µM | [52] 1.36 µM | [58] 2.07 µM | [59] 2.83 µM

NC(=S)N/N=C(\C(=O)Nc1cccc([N+](=O)[O-])c1)c1nc2ccc([N+](=O)[O-])cc2nc1O
inactive: [1] > 100 µM | [55] > 100 µM | [2] 91.2 µM | [3] 21.4 µM | [5] 34.8 µM | [6] > 100 µM | [7] 42 µM | [8] 20.7 µM | [56] 44.4 µM | [9] 54.3 µM | [10] 21.9 µM | [11] 58.5 µM | [13] 19.9 µM | [14] 15 µM | [15] 56.8 µM | [16] > 100 µM | [17] > 100 µM | [18] > 100 µM | [19] 89.5 µM | [20] 37.2 µM | [21] 40.6 µM | [22] 34.7 µM | [23] 71.1 µM | [24] 88.9 µM | [25] > 100 µM | [26] 18.2 µM | [27] > 100 µM | [28] > 100 µM | [29] > 100 µM | [30] 74.6 µM | [31] 3.85 µM | [33] > 100 µM | [34] > 100 µM | [35] > 100 µM | [36] > 100 µM | [37] > 100 µM | [38] > 100 µM | [39] > 100 µM | [40] > 100 µM | [41] 63.1 µM | [42] > 100 µM | [43] > 100 µM | [44] 30.9 µM | [57] > 100 µM | [46] > 100 µM | [47] > 100 µM | [50] > 100 µM | [51] > 100 µM | [52] > 100 µM | [53] 7.8 µM | [58] 51.4 µM | [54] > 100 µM | [59] 36.1 µM
29.4 µM: [12]
